According to PubChem BioAssay AID248 (DTP/NCI, 2004):
Several values for one entry are separate records, joined by “and”; a condition that tells them apart may be missing. Equal values may be shown once. Toxic doses and inconclusive results are not listed.

System: L1210 leukemia ip in BDF1 mice, survival T/C
Assay: NCI In Vivo Anticancer Drug Screen. Data for tumor model L1210 Leukemia (intraperitoneal) in B6D2F1 (BDF1) mice
Conditions: endpoint: mean survival time, higher = longer survival
Summary of the method: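 Mice bearing the transplanted tumor received compound or vehicle. Survival of the treated group was divided by that of the vehicle-treated control group to give the ratio.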

[1] = dose: 100.0 mg/kg/injection, schedule: Q04DX003 (ip), vehicle: saline with Tween-80
[2] = dose: 25.0 mg/kg/injection, schedule: Q01DX009 (ip), vehicle: saline with Tween-80
[3] = dose: 50.0 mg/kg/injection, schedule: Q01DX009 (ip), vehicle: saline with Tween-80
[4] = dose: 100.0 mg/kg/injection, schedule: Q01DX009 (ip), vehicle: saline with Tween-80
[5] = dose: 400.0 mg/kg/injection, schedule: Q01DX009 (ip), vehicle: saline with Tween-80
[6] = dose: 100.0 mg/kg/injection, schedule: Q01DX001 (ip), vehicle: carboxymethylcellulose (CMC)
[7] = dose: 200.0 mg/kg/injection, schedule: Q01DX001 (ip), vehicle: carboxymethylcellulose (CMC)

**Q.** What does the source list for `Nc1nc(N)c(N=C/C=C\c2ccc([N+](=O)[O-])cc2)c(-c2ccccc2)n1`?
**A.** T/C (dose: 50.0 mg/kg/injection, schedule: Q01DX001 (ip), vehicle: saline): 113 % of control; T/C (dose: 100.0 mg/kg/injection, schedule: Q01DX001 (ip), vehicle: saline): 107 % of control; T/C (dose: 200.0 mg/kg/injection, schedule: Q01DX001 (ip), vehicle: saline): 91 % of control; T/C (dose: 400.0 mg/kg/injection, schedule: Q01DX001 (ip), vehicle: saline): 103 % of control

**Q.** For `COC(=O)C(CCCN(C)C)(CCCN(C)C)c1cccc2ccccc12`, which T/C [1] is on record?
**A.** The T/C was 96 % of control.

**Q.** `CCCCCCCCCCCCC1CCCC(C)C1` (centres undefined) was tested. Which T/C [2] did it give?
**A.** Its T/C is 89 % of control.

**Q.** What about the T/C [3] of the same compound?
**A.** The T/C was 99 % of control.

**Q.** And the T/C [4]?
**A.** Its T/C is 92 % of control.

**Q.** What about the T/C (dose: 100.0 mg/kg/injection, schedule: Q04DX002 (ip), vehicle: saline with Tween-80) of the same compound?
**A.** The T/C was 105 % of control and 90 % of control.

**Q.** And the T/C (dose: 200.0 mg/kg/injection, schedule: Q04DX002 (ip), vehicle: saline with Tween-80)?
**A.** Its T/C is 104 % of control and 90 % of control.

**Q.** And the T/C [5]?
**A.** The T/C was 90 % of control.

**Q.** What about the T/C (dose: 800.0 mg/kg/injection, schedule: Q04DX002 (ip), vehicle: saline with Tween-80) of the same compound?
**A.** The T/C was 97 % of control.

**Q.** Which T/C (dose: 12.5 mg/kg/injection, schedule: Q01DX009 (ip), vehicle: saline with Tween-80) does the source give for `Nc1nc(=O)c2[nH]cnc2n1O` here?
**A.** Its T/C is 96 % of control.

**Q.** And the T/C (dose: 16.5 mg/kg/injection, schedule: Q01DX009 (ip), vehicle: saline)?
**A.** Its T/C is 112 % of control.

**Q.** And the T/C [2]?
**A.** The T/C was 215 % of control.

**Q.** And the T/C (dose: 25.0 mg/kg/injection, schedule: Q01DX009 (ip), vehicle: saline)?
**A.** The T/C was 100 % of control.

**Q.** What about the T/C [3] of the same compound?
**A.** The T/C was 88 % of control.

**Q.** What about the T/C (dose: 55.0 mg/kg/injection, schedule: Q01DX009 (ip), vehicle: saline) of the same compound?
**A.** The T/C was 110 % of control.

**Q.** `CC(C)=CCC/C(C)=C\COc1ccc(C(C)(C)C)cc1` was tested. Which T/C (dose: 100.0 mg/kg/injection, schedule: Q04DX002 (ip), vehicle: Klucel (hydroxypropylcellulose) (HPC)) did it give?
**A.** Its T/C is 96 % of control.

**Q.** What about the T/C (dose: 200.0 mg/kg/injection, schedule: Q04DX002 (ip), vehicle: Klucel (hydroxypropylcellulose) (HPC)) of the same compound?
**A.** Its T/C is 100 % of control.

**Q.** And the T/C (dose: 400.0 mg/kg/injection, schedule: Q04DX002 (ip), vehicle: Klucel (hydroxypropylcellulose) (HPC))?
**A.** Its T/C is 89 % of control.

**Q.** With `NC(=O)C1(Nc2ccc(-c3ccc(NC4(C(N)=O)CCCC4)cc3)cc2)CCCC1` as the compound, how does the T/C (dose: 50.0 mg/kg/injection, schedule: Q01DX001 (ip), vehicle: carboxymethylcellulose (CMC)) read?
**A.** The T/C was 95 % of control.

**Q.** And the T/C [6]?
**A.** The T/C was 90 % of control.

**Q.** What about the T/C [7] of the same compound?
**A.** Its T/C is 93 % of control.

**Q.** Which T/C (dose: 75.0 mg/kg/injection, schedule: Q01DX001 (ip), vehicle: other) does the source give for `COc1cc2c(cc1OC)C13CCN4C=C5CCOC6CC(=O)N2C1C6C5CC43` (centres undefined) here?
**A.** The T/C was 96 % of control.

**Q.** `COC(=O)/C=C(\C)Nc1ccc(C(C)=O)cc1` was tested. Which T/C (dose: 100.0 mg/kg/injection, schedule: Q04DX003 (ip), vehicle: acetone) did it give?
**A.** The T/C was 96 % of control.

**Q.** What about the T/C (dose: 200.0 mg/kg/injection, schedule: Q04DX003 (ip), vehicle: acetone) of the same compound?
**A.** The T/C was 94 % of control.

**Q.** And the T/C (dose: 400.0 mg/kg/injection, schedule: Q04DX003 (ip), vehicle: acetone)?
**A.** The T/C was 94 % of control.

**Q.** Which results are given for `Cc1cccc(C2C(=O)c3ccccc3C2=O)n1`?
**A.** T/C [4]: 88 % of control; T/C [1]: 95 % of control; T/C (dose: 200.0 mg/kg/injection, schedule: Q01DX009 (ip), vehicle: saline with Tween-80): 89 % of control; T/C (dose: 200.0 mg/kg/injection, schedule: Q04DX003 (ip), vehicle: saline with Tween-80): 99 % of control; T/C [5]: 91 % of control; T/C (dose: 400.0 mg/kg/injection, schedule: Q04DX003 (ip), vehicle: saline with Tween-80): 88 % of control

**Q.** For `ClCCC[Si](Cl)(Cl)Cl`, which T/C (dose: 75.0 mg/kg/injection, schedule: Q01DX001 (ip), vehicle: saline) is on record?
**A.** Its T/C is 109 % of control.

**Q.** What about the T/C (dose: 150.0 mg/kg/injection, schedule: Q01DX001 (ip), vehicle: saline) of the same compound?
**A.** Its T/C is 107 % of control.

**Q.** What about the T/C (dose: 300.0 mg/kg/injection, schedule: Q01DX001 (ip), vehicle: saline) of the same compound?
**A.** The T/C was 100 % of control.

**Q.** For `Cc1ccc(CSCc2ccc(C)cc2)cc1`, which T/C (dose: 100.0 mg/kg/injection, schedule: Q01DX009 (ip), vehicle: Klucel (hydroxypropylcellulose) (HPC)) is on record?
**A.** The T/C was 100 % of control.

**Q.** And the T/C (dose: 200.0 mg/kg/injection, schedule: Q01DX009 (ip), vehicle: Klucel (hydroxypropylcellulose) (HPC))?
**A.** The T/C was 96 % of control.

**Q.** What about the T/C (dose: 400.0 mg/kg/injection, schedule: Q01DX009 (ip), vehicle: Klucel (hydroxypropylcellulose) (HPC)) of the same compound?
**A.** Its T/C is 92 % of control.

**Q.** `CCOC(=O)C1CC(O)CN1` (centres undefined) was tested. Which T/C (dose: 100.0 mg/kg/injection, schedule: Q04DX003 (ip), vehicle: saline sonified) did it give?
**A.** The T/C was 97 % of control.

**Q.** What about the T/C (dose: 200.0 mg/kg/injection, schedule: Q04DX003 (ip), vehicle: saline sonified) of the same compound?
**A.** The T/C was 100 % of control.

**Q.** And the T/C (dose: 400.0 mg/kg/injection, schedule: Q04DX003 (ip), vehicle: saline sonified)?
**A.** The T/C was 87 % of control.

**Q.** Which T/C (dose: 222.0 mg/kg/injection, schedule: Q01DX Z (ip), vehicle: saline) does the source give for `O=C(O)C1=CCCC1` here?
**A.** Its T/C is 103 % of control.

**Q.** What about the T/C (dose: 333.0 mg/kg/injection, schedule: Q01DX Z (ip), vehicle: saline) of the same compound?
**A.** Its T/C is 102 % of control.

**Q.** What about the T/C (dose: 500.0 mg/kg/injection, schedule: Q01DX Z (ip), vehicle: saline) of the same compound?
**A.** Its T/C is 96 % of control.

**Q.** How did the T/C (dose: 100.0 mg/kg/injection, schedule: Q01DX005 (ip), vehicle: saline with Tween-80) turn out when `COC(=O)c1c(C(N)=O)n[nH]c1C1OC(COCc2ccccc2)C(OCc2ccccc2)C1OCc1ccccc1` (centres undefined) was run?
**A.** Its T/C is 102 % of control.

**Q.** And the T/C (dose: 200.0 mg/kg/injection, schedule: Q01DX005 (ip), vehicle: saline with Tween-80)?
**A.** The T/C was 100 % of control.

**Q.** How did the T/C [1] turn out when `O=c1ccc2nc3ccccc3sc-2c1` was run?
**A.** The T/C was 89 % of control.

**Q.** Which T/C (dose: 100.0 mg/kg/injection, schedule: Q01DX001 (ip), vehicle: Klucel (hydroxypropylcellulose) (HPC)) does the source give for `CC(=O)NCC(=O)O` here?
**A.** The T/C was 113 % of control.

**Q.** And the T/C (dose: 200.0 mg/kg/injection, schedule: Q01DX001 (ip), vehicle: Klucel (hydroxypropylcellulose) (HPC))?
**A.** The T/C was 95 % of control.

**Q.** And the T/C (dose: 300.0 mg/kg/injection, schedule: Q01DX001 (ip), vehicle: Klucel (hydroxypropylcellulose) (HPC))?
**A.** The T/C was 94 % of control.

**Q.** For `CCOC(=O)C1CC(=O)c2cc(OC)c(OC)cc2C1c1ccc(OC)c(OC)c1` (centres undefined), which T/C [6] is on record?
**A.** The T/C was 98 % of control.

**Q.** What about the T/C [7] of the same compound?
**A.** Its T/C is 89 % of control.
